Among the data in patent US20240018121A1, “NOVEL HETEROAROMATIC COMPOUNDS EXHIBITING ANTIFUNGAL ACTIVITY AND THEIR METHOD OF USE” (FOX CHASE CHEMCIAL DIVERSITY CENTER, INC., priority 2020, published 2024) are MIC and MIC50 values, retold here.

The structures appear in SMILES notation. Converted amounts (≈) assume the structure as drawn. Counter-ions that a name gives are not always drawn. Like-named read-outs stand apart in the source and are kept apart here.

What all share (assay type): cell-based
In experiment [1] the test system is Aspergillus flavus AFL1 (ATCC MYA-3631). Description: Fungal MIC Protocol, Aspergillus flavus. The settings on record: Aspergillus flavus, read-out: MIC Aspergillus flavus 3631. The method, boiled down: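 Aspergillus flavus spores were grown on Potato Dextrose Agar at 35° C. for 3-5 days, harvested in PBS pH 7.4+0.1% Tween-20 with glass beads, and diluted in RPMI/MOPS to an OD530 of 0.002 (about 2×10^4 cfu/mL). 50 ul of spores were combined with 50 μl of serially diluted compound in 96-well round bottom plates and incubated at 35° C. for 48 hours.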

Experiment [2] has as its system Aspergillus fumigatus T33439 (ATCC MYA-3626). Put plainly: Fungal MIC Protocol, Aspergillus fumigatus. The settings on record: Aspergillus fumigatus, read-out: MIC Aspergillus fumigatus 3626. The method, boiled down: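 Aspergillus fumigatus was grown on Potato Dextrose Agar at 35° C. for 3-5 days, and spores were collected with PBS pH 7.4+0.1% Tween-20 plus glass beads. Spores were diluted in RPMI/MOPS to OD530 0.002 (about 2×10^4 cfu/mL). 50 ul was added to 50 μl of serially diluted compound in round bottom 96-well plates, run in duplicate, and incubated at 35° C. for 48 hours.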

Experiment [3] has as its system Fusarium falciforme FS1 (ATCC MYA-3636). Put plainly: Fungal MIC Protocol, Fusarium falciforme. The settings on record: Fusarium falciforme, read-out: MIC Fusarium falciforme 3636. The essentials: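 Fusarium falciforme spores were raised on Potato Dextrose Agar at 35° C. for 3-5 days, collected in PBS pH 7.4+0.1% Tween-20 with glass beads, and diluted in RPMI/MOPS pH 7.0 to OD530 0.005 (about 2×10^4 cfu/mL). 50 ul spores were added to 50 μl duplicate serial compound dilutions in round bottom 96-well plates and incubated at 35° C. for 48 hours.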

Experiment [4] concerns Fusarium solani (ATCC 58877). Description: Fungal MIC Protocol, Fusarium solani. Particulars: Fusarium solani, read-out: MIC Fusarium solani 58877. The method, boiled down: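 Fusarium solani spores were grown on Potato Dextrose Agar in tissue culture flasks at 35° C. for 3-5 days, harvested with PBS pH 7.4+0.1% Tween-20 and glass beads, and diluted in RPMI/MOPS to an OD530 of 0.005 (about 2×10^4 cfu/mL). Equal 50 ul volumes of spores and serially diluted compound were combined in 96-well round bottom plates and incubated 48 hours at 35° C.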

Experiment [5] concerns Mucor circinelloides 1463(62) (ATCC 26759). Put plainly: Fungal MIC Protocol, Mucor circinelloides (MIC-50). The settings on record: Mucor circinelloides, read-out: MIC-50 Mucorales circinelloides 26579. The essentials:
(§1)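 Spores from PDA cultures (Aspergillus, Fusarium at 35 °C; Mucor at room temperature) diluted in RPMI/MOPS pH 7.0 to ~2×10^4 cfu/mL. Ten serial dilutions starting from 200 ug/mL in medium (before 1:1 mixing with spores), in duplicate; 48 h at 35 °C. MIC is the lowest concentration giving >50% visually scored growth inhibition.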

In experiment [6] the test system is Mucor ramosissimus 057718 (ATCC 90286). Put plainly: Fungal MIC Protocol, Mucor ramosissimus (MIC-50). Particulars: Mucor ramosissimus, read-out: MIC-50 Mucorales ramosissimus 90286. The method, boiled down:
as §1

The test system of another experiment is Candida albicans GDH2346. Put plainly: Candida Minimal Inhibitory Concentration (MIC). The settings on record: Candida albicans, read-out: MIC-50 Candida albicans GDH2346. The method, boiled down: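 Twofold serial dilutions from 200 μg/mL in RPMI 1640/MOPS with glucose, pH 7.0, tested in duplicate against yeast from an OD600 1.0 suspension diluted 1:1000. Incubated at 35° C; OD600 read at 24 and 48 h.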

Setting [7] is: 100% growth inhibition at 48 hours.
Where [8] appears, read: ATCC58877, 100% growth inhibition at 48 hours.
Setting [9] is: ATCC26759, 50% growth inhibition at 48 hours.
Where [10] appears, read: ATCC90286, 50% growth inhibition at 48 hours.
[11] abbreviates: GDH2346, 50% growth inhibition at 48 hours.

The term MIC denotes the smallest concentration in the dilution series that meets the test's criterion for growth inhibition. Turning to `N=C(N)N1CC=C(c2ccc(-c3nnc(-c4ccc(C5=CCN(C(=N)N)CC5)cc4F)n3CCCO)c(F)c2)CC1` [Example 73, 4-(4-{5-[4-(1-carbamimidoyl-1,2,3,6-tetrahydropyridin-4-yl)-2-fluorophenyl]-4-(3-hydroxypropyl)-4H-1,2,4-triazol-3-yl}-3-fluorophenyl)-1,2,3,6-tetrahydropyridine-1-carboximidamide hydrochloride], the MIC in experiment [1] (48 h) is 0.2 µg/mL; in experiment [2] (48 h), 0.1 µg/mL; in experiment [3] (48 h), 0.1 µg/mL; in experiment [4] (ATCC58877, 48 h), 0.05 µg/mL. In addition, the MIC50 in experiment [5] (ATCC26759, 48 h) came to 1.56 µg/mL; in experiment [6] (ATCC90286, 48 h), 3.13 µg/mL; with Candida albicans GDH2346 (GDH2346, 48 h), 0.2 µg/mL.
For `Cc1c(-c2ccc(C3=CCN(C(=N)N)CC3)cc2)nnn1-c1ccc(C2=CCN(C(=N)N)CC2)cc1` [Example 31, 4-(4-{1-[4-(1-Carbamimidoyl-1,2,3,6-tetrahydropyridin-4-yl)phenyl]-5-methyl-1H-1,2,3-triazol-4-yl}phenyl)-1,2,3,6-tetrahydropyridine-1-carboximidamide], the MIC in experiment [1] (setting [7]), in experiment [2] (setting [7]), in experiment [3] (setting [7]) and in experiment [4] (setting [8]) was < 0.05 µg/mL each time. In addition, the MIC50 in experiment [5] (setting [9]) stood at 0.78 µg/mL (≈ 1.62 µM); in experiment [6] (setting [10]) it was 1.56 µg/mL (≈ 3.24 µM); in the experiment on Candida albicans GDH2346 (setting [11]) it was 0.1 µg/mL (≈ 0.208 µM).
On to `Cn1c(-c2ccc(C3CCN(C(=N)N)CC3)cc2)nnc1-c1ccc(C2CCN(C(=N)N)CC2)cc1` [Example 39, 4,4′-(4,4′-(4-Methyl-4H-1,2,4-triazole-3,5-diyl)bis(4,1-phenylene))dipiperidine-1-carboximidamide], for which the minimal inhibitory concentration (MIC) amounted to 1.56 µg/mL (≈ 3.21 µM) in experiment [1] (setting [7]), 1.56 µg/mL (≈ 3.21 µM) in experiment [2] (setting [7]), 0.78 µg/mL (≈ 1.61 µM) in experiment [3] (setting [7]) and 0.78 µg/mL (≈ 1.61 µM) in experiment [4] (setting [8]). Besides, the MIC50 was > 100 µg/mL in experiment [5] (setting [9]), > 100 µg/mL in experiment [6] (setting [10]) and 0.78 µg/mL (≈ 1.61 µM) in the experiment on Candida albicans GDH2346 (setting [11]).
Regarding `CCn1c(-c2ccc(C3=CCN(C(=N)N)CC3)cc2F)nnc1-c1ccc(C2=CCN(C(=N)N)CC2)cc1F` [Example 10, 4,4′-(4,4′-(4-Ethyl-4H-1,2,4-triazole-3,5-diyl)bis(3-fluoro-4,1-phenylene)) bis(5,6-dihydropyridine-1(2H)-carboximidamide)], the MIC in experiment [1] (setting [7]), in experiment [2] (setting [7]), in experiment [3] (setting [7]) and in experiment [4] (setting [8]) was < 0.1 µg/mL in each case. Also, the MIC50 in experiment [5] (setting [9]) was 0.78 µg/mL (≈ 1.47 µM); in experiment [6] (setting [10]), 1.56 µg/mL (≈ 2.93 µM); in the experiment with Candida albicans GDH2346 (setting [11]) it was < 0.1 µg/mL.
For the compound `N=C(N)N1CC=C(c2ccc(-c3nnc(-c4ccc(C5=CCN(C(=N)N)CC5)cc4F)n3CCO)c(F)c2)CC1` [Example 57, 4,4′-(4,4′-(4-(2-Hydroxyethyl)-4H-1,2,4-triazole-3,5-diyl)bis(3-fluoro-4,1-phenylene))bis(5,6-dihydropyridine-1(2H)-carboximidamide)], the MIC in experiment [1] (setting [7]) was 0.2 µg/mL (≈ 0.365 µM); in experiment [2] (setting [7]), < 0.1 µg/mL; in experiment [3] (setting [7]) it was < 0.1 µg/mL; in experiment [4] (setting [8]), < 0.1 µg/mL. For the same compound, the figures for the MIC50 (in experiment [5] (setting [9]); in experiment [6] (setting [10]); in the experiment with Candida albicans GDH2346 (setting [11])) were 0.39 µg/mL (≈ 0.712 µM), 3.13 µg/mL (≈ 5.72 µM) and 0.2 µg/mL (≈ 0.365 µM), respectively.
For `N=C(N)N1CC=C(c2ccc(-c3nnc(-c4ccc(C5=CCN(C(=N)N)CC5)cc4)o3)cc2)CC1` [Example 41, 4-(4-{5-[4-(1-Carbamimidoyl-1,2,3,6-tetrahydropyridin-4-yl)phenyl]-1,3,4-oxadiazol-2-yl}phenyl)-1,2,3,6-tetrahydropyridine-1-carboximidamide], the minimum inhibitory concentration (MIC) in experiment [1] (setting [7]) stood at 3.13 µg/mL (≈ 6.68 µM); in experiment [2] (setting [7]), 3.13 µg/mL (≈ 6.68 µM); in experiment [3] (setting [7]), 0.39 µg/mL (≈ 0.832 µM); in experiment [4] (setting [8]), 6.25 µg/mL (≈ 13.3 µM). The MIC50 in experiment [5] (setting [9]) turned out to be 100 µg/mL (≈ 213 µM); in experiment [6] (setting [10]), 100 µg/mL (≈ 213 µM); in the experiment with Candida albicans GDH2346 (setting [11]), 0.39 µg/mL (≈ 0.832 µM).
For `Cn1c(-c2ccc(C3=CCN(C(=N)N)CC3)cc2)nnc1-c1ccc(C2=CCN(C(=N)N)CC2)cc1` [Example 1, 4,4-(4,4-(4-Methyl-4H-1,2,4-triazole-3,5-diyl)bis(4,1-phenylene))bis(5,6-dihydropyridine-1(2H)-carboximidamide)], the MIC in experiment [1] (setting [7]) is 0.1 µg/mL (≈ 0.208 µM); in experiment [2] (setting [7]) it was < 0.05 µg/mL; in experiment [3] (setting [7]), < 0.05 µg/mL; in experiment [4] (setting [8]), 0.78 µg/mL (≈ 1.62 µM). Further, the MIC50 in experiment [5] (setting [9]) is 0.2 µg/mL (≈ 0.415 µM); in experiment [6] (setting [10]) it was 0.78 µg/mL (≈ 1.62 µM); in the experiment on Candida albicans GDH2346 (setting [11]), < 0.2 µg/mL.
For the compound `N=C(N)NCCn1c(-c2ccc(C3=CCN(C(=N)N)CC3)cc2F)nnc1-c1ccc(C2=CCN(C(=N)N)CC2)cc1F` [Example 16, 4,4′-(4,4′-(4-(2-guanidinoethyl)-4H-1,2,4-triazole-3,5-diyl)bis(3-fluoro-4,1-phenylene))bis(5,6-dihydropyridine-1(2H)-carboximidamide)], the MIC was 0.39 µg/mL (≈ 0.663 µM) in experiment [1] (setting [7]), 0.39 µg/mL (≈ 0.663 µM) in experiment [2] (setting [7]), < 0.1 µg/mL in experiment [3] (setting [7]) and < 0.1 µg/mL in experiment [4] (setting [8]). Also, the MIC50 in experiment [5] (setting [9]) was 12.5 µg/mL (≈ 21.2 µM); in experiment [6] (setting [10]), > 100 µg/mL; in the experiment on Candida albicans GDH2346 (setting [11]), 0.39 µg/mL (≈ 0.663 µM).
As for `N=C(N)N1CC=C(c2ccc(-c3nnc(-c4ccc(C5=CCN(C(=N)N)CC5)cc4F)n3CCO)cc2)CC1` [Example 82, 4-(4-{5-[4-(1-carbamimidoyl-1,2,3,6-tetrahydropyridin-4-yl)-2-fluorophenyl]-4-(2-hydroxyethyl)-4H-1,2,4-triazol-3-yl}phenyl)-1,2,3,6-tetrahydropyridine-1-carboximidamide hydrochloride], the MIC stood at 0.2 µg/mL in experiment [1] (48 h); 0.1 µg/mL in experiment [2] (48 h); 0.05 µg/mL in experiment [3] (48 h); 0.05 µg/mL in experiment [4] (ATCC58877, 48 h). Further, the MIC50 turned out to be 0.39 µg/mL in experiment [5] (ATCC26759, 48 h); 1.56 µg/mL in experiment [6] (ATCC90286, 48 h); 0.2 µg/mL in the experiment on Candida albicans GDH2346 (GDH2346, 48 h).
On to `COCCn1c(-c2ccc(C3=CCN(C(=N)N)CC3)cc2)nnc1-c1ccc(C2=CCN(C(=N)N)CC2)cc1` [Example 67, 4-(4-{5-[4-(1-carbamimidoyl-1,2,3,6-tetrahydropyridin-4-yl)phenyl]-4-(2-methoxyethyl)-4H-1,2,4-triazol-3-yl}phenyl)-1,2,3,6-tetrahydropyridine-1-carboximidamide trifluoroacetate], for which the MIC in experiment [1] (48 h) is 0.1 µg/mL; in experiment [2] (48 h) it was 0.1 µg/mL; in experiment [3] (48 h) it was 0.05 µg/mL; in experiment [4] (ATCC58877, 48 h) it was 0.05 µg/mL. The MIC50 in experiment [5] (ATCC26759, 48 h) was 0.39 µg/mL; in experiment [6] (ATCC90286, 48 h), 1.56 µg/mL; in the experiment on Candida albicans GDH2346 (GDH2346, 48 h), 0.2 µg/mL.
Take `N=C(N)N1CC=C(c2ccc(-c3nnc(-c4ccc(C5=CCN(C(=N)N)CC5)cc4F)n3C3CCN(C(=N)N)CC3)c(F)c2)CC1` [Example 12, 4,4′-(4,4′-(4-(1-Carbamimidoylpiperidin-4-yl)-4H-1,2,4-triazole-3,5-diyl)bis (3-fluoro-4,1-phenylene))bis(5,6-dihydropyridine-1(2H)-carboximidamide)]: the MIC in experiment [1] (setting [7]) is 3.13 µg/mL (≈ 4.98 µM); in experiment [2] (setting [7]), 3.13 µg/mL (≈ 4.98 µM); in experiment [3] (setting [7]), 0.39 µg/mL (≈ 0.62 µM); in experiment [4] (setting [8]), < 0.1 µg/mL. Also, the MIC50 in experiment [5] (setting [9]) was > 100 µg/mL; in experiment [6] (setting [10]) it was > 100 µg/mL; in the experiment with Candida albicans GDH2346 (setting [11]) it was 12.5 µg/mL (≈ 19.9 µM).
